Laboratory results: US20250197406A1, “INDAZOLES AS HEMATOPOIETIC PROGENITOR KINASE 1 (HPK1) INHIBITORS AND METHODS FOR USING SAME” (1ST Biotherapeutics, Inc., priority 2022, published 2025)
Counter-ions that a name gives are not always drawn.

Each molecule was assayed against recombinant human HPK1 (Homo sapiens (Human), UniProt Q92918) (assay: HPK1 kinase assay (Promega ADP-Glo kinase assay)). Details: In vitro activity against HPK1, 5 ng HPK1, MBP substrate, ATP 25 μM, 30° C. 40 minutes.
Format: biochemical
Procedure, shortened: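 ADP-Glo luminescence assay with 5 ng recombinant human HPK1, MBP substrate and ATP (added as 25 µM solution) in Tris pH 7.5, 20 mM MgCl2, BSA, DTT, 0.5% DMSO. Reaction ran 40 min at 30 °C. IC50 was fitted from percent inhibition over an inhibitor concentration range.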

recombinant human HPK1, sequence (Q92918 whole entry): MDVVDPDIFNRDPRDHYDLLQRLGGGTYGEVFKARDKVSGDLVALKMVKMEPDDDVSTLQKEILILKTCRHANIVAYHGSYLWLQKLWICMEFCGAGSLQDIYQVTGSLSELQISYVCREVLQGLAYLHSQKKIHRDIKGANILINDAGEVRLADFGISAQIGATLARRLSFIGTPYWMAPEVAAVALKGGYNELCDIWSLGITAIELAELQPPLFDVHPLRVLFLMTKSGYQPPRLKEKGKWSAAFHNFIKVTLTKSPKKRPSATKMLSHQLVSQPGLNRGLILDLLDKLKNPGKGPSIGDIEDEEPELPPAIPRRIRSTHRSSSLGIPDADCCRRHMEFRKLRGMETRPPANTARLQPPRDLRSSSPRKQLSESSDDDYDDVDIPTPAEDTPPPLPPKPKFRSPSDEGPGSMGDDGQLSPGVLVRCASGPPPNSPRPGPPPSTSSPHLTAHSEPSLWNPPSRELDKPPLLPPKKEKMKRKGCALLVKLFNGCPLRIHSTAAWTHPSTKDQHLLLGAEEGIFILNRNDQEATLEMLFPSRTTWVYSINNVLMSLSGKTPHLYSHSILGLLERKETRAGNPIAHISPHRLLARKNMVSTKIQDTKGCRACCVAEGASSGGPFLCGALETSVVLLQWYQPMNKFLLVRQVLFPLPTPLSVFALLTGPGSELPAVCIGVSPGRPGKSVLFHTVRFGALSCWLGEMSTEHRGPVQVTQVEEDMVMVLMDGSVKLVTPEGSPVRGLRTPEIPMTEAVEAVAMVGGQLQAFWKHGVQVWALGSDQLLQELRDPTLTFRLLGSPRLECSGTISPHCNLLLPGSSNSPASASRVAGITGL

IC50 | Structure (SMILES)
< 100 nM | Cc1c(F)c(C(C)NC(=O)C2CC2)c2[nH]ncc2c1-c1cn2cc(NC(=O)[C@@H]3C[C@@H]3F)nc2cn1 (stereo partly drawn) [Example 69, (1S,2S)-N-(6-(7-(1-(cyclopropanecarboxamido)ethyl)-6-fluoro-5-methyl-1H-indazol-4-yl)imidazo[1,2-a]pyrazin-2-yl)-2-fluorocyclopropane-1-carboxamide]
< 100 nM | CC(=O)NC(C)c1c(F)c(C)c(-c2cn3cc(NC(=O)[C@@H]4C[C@@H]4F)nc3cn2)c2cn[nH]c12 (stereo partly drawn) [Example 70, (1S,2S)-N-(6-(7-(1-acetamidoethyl)-6-fluoro-5-methyl-1H-indazol-4-yl)imidazo[1,2-a]pyrazin-2-yl)-2-fluorocyclopropane-1-carboxamide]
< 100 nM | Cc1c(F)c(C(C)NC(=O)C(F)(F)F)c2[nH]ncc2c1-c1cn2cc(NC(=O)[C@@H]3C[C@@H]3F)nc2cn1 (stereo partly drawn) [Example 71, (1S,2S)-2-fluoro-N-(6-(6-fluoro-5-methyl-7-(1-(2,2,2-trifluoroacetamido)ethyl)-1H-indazol-4-yl)imidazo[1,2-a]pyrazin-2-yl)cyclopropane-1-carboxamide]
501 to 1000 nM | N#Cc1c(F)cc2[nH]ncc2c1-c1cn2cc(NC(=O)[C@@H]3C[C@@H]3F)nc2cn1 [Example 72, (1S,2S)-N-(6-(5-cyano-6-fluoro-1H-indazol-4-yl)imidazo[1,2-a]pyrazin-2-yl)-2-fluorocyclopropane-1-carboxamide]
501 to 1000 nM | CC(C)Nc1c(F)c(C(=O)O)c(-c2cn3cc(NC(=O)[C@@H]4C[C@@H]4F)nc3cn2)c2cn[nH]c12 [Example 73, 6-fluoro-4-(2-((1S,2S)-2-fluorocyclopropane-1-carboxamido)imidazo[1,2-a]pyrazin-6-yl)-7-(isopropylamino)-1H-indazole-5-carboxylic acid]
< 100 nM | CC(C)Nc1c(F)c(Cl)c(-c2cn3cc(NC(=O)C4CCNC4)nc3cn2)c2cn[nH]c12 (centres unmarked) [Example 74, N-(6-(5-chloro-6-fluoro-7-(isopropylamino)-1H-indazol-4-yl)imidazo[1,2-a]pyrazin-2-yl)pyrrolidine-3-carboxamide]
< 100 nM | CC(NC=O)c1c(F)c(C(F)F)c(-c2cn3cc(NC(=O)[C@@H]4C[C@@H]4F)nc3cn2)c2cn[nH]c12 (stereo partly drawn) [Example 75, (1S,2S)-N-(6-(5-(difluoromethyl)-6-fluoro-7-(1-formamidoethyl)-1H-indazol-4-yl)imidazo[1,2-a]pyrazin-2-yl)-2-fluorocyclopropane-1-carboxamide]
< 100 nM | CC(NC(=O)C1CC1)c1c(F)c(C(F)F)c(-c2cn3cc(NC(=O)[C@@H]4C[C@@H]4F)nc3cn2)c2cn[nH]c12 (stereo partly drawn) [Example 76, (1S,2S)-N-(6-(7-(1-(cyclopropanecarboxamido)ethyl)-5-(difluoromethyl)-6-fluoro-1H-indazol-4-yl)imidazo[1,2-a]pyrazin-2-yl)-2-fluorocyclopropane-1-carboxamide]
< 100 nM | O=C(NC(c1c(F)c(C(F)F)c(-c2cn3cc(NC(=O)[C@@H]4C[C@@H]4F)nc3cn2)c2cn[nH]c12)C1CC1)C1CC1 (stereo partly drawn) [Example 77, (1S,2S)-N-(6-(7-(cyclopropanecarboxamido(cyclopropyl)methyl)-5-(difluoromethyl)-6-fluoro-1H-indazol-4-yl)imidazo[1,2-a]pyrazin-2-yl)-2-fluorocyclopropane-1-carboxamide]
< 100 nM | CC(C)Nc1c(F)c(Cl)c(-c2cn3cc(NC(=O)C4(N)CC4)nc3cn2)c2cn[nH]c12 [Example 78, 1-amino-N-(6-(5-chloro-6-fluoro-7-(isopropylamino)-1H-indazol-4-yl)imidazo[1,2-a]pyrazin-2-yl)cyclopropane-1-carboxamide]
< 100 nM | CC(C)Nc1c(F)c(Cl)c(-c2cn3cc(NC(=O)[C@H](C)N)nc3cn2)c2cn[nH]c12 [Example 79, (S)-2-amino-N-(6-(5-chloro-6-fluoro-7-(isopropylamino)-1H-indazol-4-yl)imidazo[1,2-a]pyrazin-2-yl)propanamide]
< 100 nM | CC(C)Nc1c(F)c(Cl)c(-c2cn3cc(NC(=O)CN)nc3cn2)c2cn[nH]c12 [Example 80, 2-amino-N-(6-(5-chloro-6-fluoro-7-(isopropylamino)-1H-indazol-4-yl)imidazo[1,2-a]pyrazin-2-yl)acetamide]
< 100 nM | CC(C)Nc1c(F)c(Cl)c(-c2cn3cc(NC(=O)C(C)C)nc3cn2)c2cn[nH]c12 [Example 81, N-(6-(5-chloro-6-fluoro-7-(isopropylamino)-1H-indazol-4-yl)imidazo[1,2-a]pyrazin-2-yl)isobutyramide]
101 to 500 nM | CC(C)Nc1c(F)c(Cl)c(-c2cn3cc(NC(=O)C(C)(C)C)nc3cn2)c2cn[nH]c12 [Example 82, N-(6-(5-chloro-6-fluoro-7-(isopropylamino)-1H-indazol-4-yl)imidazo[1,2-a]pyrazin-2-yl)pivalamide]
< 100 nM | CC(=O)Nc1cn2cc(-c3c(C(F)(F)F)c(F)c(NC(C)C)c4[nH]ncc34)ncc2n1 [Example 83, N-(6-(6-fluoro-7-(isopropylamino)-5-(trifluoromethyl)-1H-indazol-4-yl)imidazo[1,2-a]pyrazin-2-yl)acetamide]
< 100 nM | CC(C)Nc1c(F)c(Cl)c(-c2cn3cc(NC(=O)N4CCOCC4)nc3cn2)c2cn[nH]c12 [Example 84, N-(6-(5-chloro-6-fluoro-7-(isopropylamino)-1H-indazol-4-yl)imidazo[1,2-a]pyrazin-2-yl)morpholine-4-carboxamide]
< 100 nM | CC(CO)c1c(F)c(C(F)(F)F)c(-c2cn3cc(NC(=O)[C@@H]4C[C@@H]4F)nc3cn2)c2cn[nH]c12 (stereo partly drawn) [Example 85, (1S,2S)-2-fluoro-N-(6-(6-fluoro-7-(1-hydroxypropan-2-yl)-5-(trifluoromethyl)-1H-indazol-4-yl)imidazo[1,2-a]pyrazin-2-yl)cyclopropane-1-carboxamide]
< 100 nM | CC(N[S+]([O-])C(C)(C)C)c1c(F)c(Cl)c(-c2cn3cc(NC(=O)[C@@H]4C[C@@H]4F)nc3cn2)c2cn[nH]c12 (stereo partly drawn) [Example 86, (1S,2S)-N-(6-(7-(1-((tert-butylsulfinyl)amino)ethyl)-5-chloro-6-fluoro-1H-indazol-4-yl)imidazo[1,2-a]pyrazin-2-yl)-2-fluorocyclopropane-1-carboxamide]
< 100 nM | CC(N[S+]([O-])C(C)(C)C)c1c(F)c(C(F)(F)F)c(-c2cn3cc(NC(=O)[C@@H]4C[C@@H]4F)nc3cn2)c2cn[nH]c12 (stereo partly drawn) [Example 87, (1S,2S)-N-(6-(7-(1-((tert-butylsulfinyl)amino)ethyl)-6-fluoro-5-(trifluoromethyl)-1H-indazol-4-yl)imidazo[1,2-a]pyrazin-2-yl)-2-fluorocyclopropane-1-carboxamide]
< 100 nM | CC(C)Nc1c(F)c(Cl)c(-c2cn3cc(NC(=O)[C@@H]4C[C@@H]4C(F)F)nc3cn2)c2cn[nH]c12 [Example 88, (1R,2S)-N-(6-(5-chloro-6-fluoro-7-(isopropylamino)-1H-indazol-4-yl)imidazo[1,2-a]pyrazin-2-yl)-2-(difluoromethyl)cyclopropane-1-carboxamide]
< 100 nM | CC(C)Nc1c(F)c(Cl)c(-c2cn3cc(NC(=O)Cc4cccnc4)nc3cn2)c2cn[nH]c12 [Example 89, N-(6-(5-chloro-6-fluoro-7-(isopropylamino)-1H-indazol-4-yl)imidazo[1,2-a]pyrazin-2-yl)-2-(pyridin-3-yl)acetamide]
< 100 nM | CC(C)Nc1c(F)c(Cl)c(-c2cn3cc(NC(=O)CN4CCOCC4)nc3cn2)c2cn[nH]c12 [Example 90, N-(6-(5-chloro-6-fluoro-7-(isopropylamino)-1H-indazol-4-yl)imidazo[1,2-a]pyrazin-2-yl)-2-morpholinoacetamide]
501 to 1000 nM | CC(C)Nc1c(F)c(Cl)c(-c2cn3cc(N4CCOCC4)nc3cn2)c2cn[nH]c12 [Example 91, 5-chloro-6-fluoro-N-isopropyl-4-(2-morpholinoimidazo[1,2-a]pyrazin-6-yl)-1H-indazol-7-amine]
< 100 nM | CC(C)Nc1c(F)c(Cl)c(-c2cn3cc(NC(=O)N4CCN(C)CC4)nc3cn2)c2cn[nH]c12 [Example 92, N-(6-(5-chloro-6-fluoro-7-(isopropylamino)-1H-indazol-4-yl)imidazo[1,2-a]pyrazin-2-yl)-4-methylpiperazine-1-carboxamide formate]
< 100 nM | Cc1c(F)c(NC(C)C)c2[nH]ncc2c1-c1cn2cc(NC(=O)Cc3cccnc3)nc2cn1 [Example 93, N-(6-(6-fluoro-7-(isopropylamino)-5-methyl-1H-indazol-4-yl)imidazo[1,2-a]pyrazin-2-yl)-2-(pyridin-3-yl)acetamide]
< 100 nM | CC(C)Nc1c(F)c(Cl)c(-c2cn3cc(NC(=O)[C@@H]4C[C@@H]4CF)nc3cn2)c2cn[nH]c12 [Example 94, (1R,2S)-N-(6-(5-chloro-6-fluoro-7-(isopropylamino)-1H-indazol-4-yl)imidazo[1,2-a]pyrazin-2-yl)-2-(fluoromethyl)cyclopropane-1-carboxamide]
< 100 nM | CC(C)Nc1c(F)c(Cl)c(-c2cn3cc(NC(=O)OC(C)C)nc3cn2)c2cn[nH]c12 [Example 95, isopropyl (6-(5-chloro-6-fluoro-7-(isopropylamino)-1H-indazol-4-yl)imidazo[1,2-a]pyrazin-2-yl)carbamate]
< 100 nM | CC(NC=O)c1c(F)c(C(F)(F)F)c(-c2cn3cc(NC(=O)[C@@H]4C[C@@H]4F)nc3cn2)c2cn[nH]c12 (stereo partly drawn) [Example 96, (1S,2S)-2-fluoro-N-(6-(6-fluoro-7-(1-formamidoethyl)-5-(trifluoromethyl)-1H-indazol-4-yl)imidazo[1,2-a]pyrazin-2-yl)cyclopropane-1-carboxamide]
< 100 nM | CC(C)(C)[S+]([O-])NC(c1c(F)c(C(F)(F)F)c(-c2cn3cc(NC(=O)[C@@H]4C[C@@H]4F)nc3cn2)c2cn[nH]c12)C1CC1 (stereo partly drawn) [Example 97, (1S,2S)-N-(6-(7-(((tert-butylsulfinyl)amino)(cyclopropyl)methyl)-6-fluoro-5-(trifluoromethyl)-1H-indazol-4-yl)imidazo[1,2-a]pyrazin-2-yl)-2-fluorocyclopropane-1-carboxamide]
